# In PubChem BioAssay AID1259407 (Chemical Carcinogenesis Research Information System (CCRIS), 2018):
# Activity calls are given as the source filed them. No rule for the calls is given here.
# System: CCRIS mutagenicity, Ames/micronucleus/aberration tests
# Experiment: CCRIS mutagenicity studies
# [1] = Test System: AMES SALMONELLA TYPHIMURIUM, Strain/Indicator: TA97, Metabolic Activation: HAMSTER, LIVER, S-9, AROCLOR 1254 (10 OR 30%), Method: PREINCUBATION
# [2] = Test System: AMES SALMONELLA TYPHIMURIUM, Strain/Indicator: TA97, Metabolic Activation: NONE, Method: PREINCUBATION
# [3] = Test System: AMES SALMONELLA TYPHIMURIUM, Strain/Indicator: TA97, Metabolic Activation: RAT, LIVER, S-9, AROCLOR 1254 (10 OR 30%), Method: PREINCUBATION
# [4] = Test System: AMES SALMONELLA TYPHIMURIUM, Strain/Indicator: TA98, Metabolic Activation: HAMSTER, LIVER, S-9, AROCLOR 1254 (10 OR 30%), Method: PREINCUBATION
# [5] = Test System: AMES SALMONELLA TYPHIMURIUM, Strain/Indicator: TA98, Metabolic Activation: NONE, Method: PREINCUBATION
# [6] = Test System: AMES SALMONELLA TYPHIMURIUM, Strain/Indicator: TA98, Metabolic Activation: RAT, LIVER, S-9, AROCLOR 1254 (10 OR 30%), Method: PREINCUBATION
# [7] = Test System: AMES SALMONELLA TYPHIMURIUM, Strain/Indicator: TA100, Metabolic Activation: NONE, Method: PREINCUBATION
# [8] = Test System: AMES SALMONELLA TYPHIMURIUM, Strain/Indicator: TA1535, Metabolic Activation: HAMSTER, LIVER, S-9, AROCLOR 1254 (10 OR 30%), Method: PREINCUBATION
# [9] = Test System: AMES SALMONELLA TYPHIMURIUM, Strain/Indicator: TA1535, Metabolic Activation: NONE, Method: PREINCUBATION
# [10] = Test System: AMES SALMONELLA TYPHIMURIUM, Strain/Indicator: TA1535, Metabolic Activation: RAT, LIVER, S-9, AROCLOR 1254 (10 OR 30%), Method: PREINCUBATION
# [11] = Test System: AMES SALMONELLA TYPHIMURIUM, Strain/Indicator: TA100, Metabolic Activation: NONE, Method: STANDARD PLATE
# [12] = Test System: AMES SALMONELLA TYPHIMURIUM, Strain/Indicator: TA98, Metabolic Activation: NONE, Method: STANDARD PLATE
compound,measurement,setting,value
CC(C)C(C)(C)C(C)(C)C(C)(C)S,mutagenic call,"Test System: AMES SALMONELLA TYPHIMURIUM, Strain/Indicator: TA97, Metabolic Activation: HAMSTER, LIVER, S-9, AROCLOR 1254 (10%), Method: PREINCUBATION",inactive; negative
same,mutagenic call,[1],inactive; negative
same,mutagenic call,"Test System: AMES SALMONELLA TYPHIMURIUM, Strain/Indicator: TA97, Metabolic Activation: HAMSTER, LIVER, S-9, AROCLOR 1254 (30%), Method: PREINCUBATION",inactive; negative
same,mutagenic call,[2],inactive; negative
same,mutagenic call,[3],inactive; negative
same,mutagenic call,[4],inactive; negative
same,mutagenic call,[5],inactive; negative
same,mutagenic call,[6],inactive; negative
same,mutagenic call,"Test System: AMES SALMONELLA TYPHIMURIUM, Strain/Indicator: TA100, Metabolic Activation: HAMSTER, LIVER, S-9, AROCLOR 1254 (10 OR 30%), Method: PREINCUBATION",inactive; negative
same,mutagenic call,[7],inactive; negative
same,mutagenic call,"Test System: AMES SALMONELLA TYPHIMURIUM, Strain/Indicator: TA100, Metabolic Activation: RAT, LIVER, S-9, AROCLOR 1254 (10 OR 30%), Method: PREINCUBATION",inactive; negative
same,mutagenic call,[8],inactive; negative
same,mutagenic call,[9],inactive; negative
same,mutagenic call,[10],inactive; negative
O=c1c(O)c2c(c3c1ccc1[nH]cccc13)O2,mutagenic call,[11],inactive; negative
c1ccc(COCc2ccccc2)cc1,mutagenic call,[1],inactive; negative
same,mutagenic call,[2],inactive; negative
same,mutagenic call,[3],inactive; negative
same,mutagenic call,[4],inactive; negative
same,mutagenic call,[5],inactive; negative
same,mutagenic call,[6],inactive; negative
same,mutagenic call,"Test System: AMES SALMONELLA TYPHIMURIUM, Strain/Indicator: TA98, Metabolic Activation: RAT, LIVER, S-9, AROCLOR 1254 (30%), Method: PREINCUBATION",inactive; negative
same,mutagenic call,"Test System: AMES SALMONELLA TYPHIMURIUM, Strain/Indicator: TA100, Metabolic Activation: HAMSTER, LIVER, S-9, AROCLOR 1254 (10%), Method: PREINCUBATION",inactive; negative
same,mutagenic call,"Test System: AMES SALMONELLA TYPHIMURIUM, Strain/Indicator: TA100, Metabolic Activation: HAMSTER, LIVER, S-9, AROCLOR 1254 (30%), Method: PREINCUBATION",inactive; negative
same,mutagenic call,[7],inactive; negative
same,mutagenic call,"Test System: AMES SALMONELLA TYPHIMURIUM, Strain/Indicator: TA100, Metabolic Activation: RAT, LIVER, S-9, AROCLOR 1254 (10%), Method: PREINCUBATION",inactive; negative
same,mutagenic call,"Test System: AMES SALMONELLA TYPHIMURIUM, Strain/Indicator: TA100, Metabolic Activation: RAT, LIVER, S-9, AROCLOR 1254 (30%), Method: PREINCUBATION",inactive; negative
same,mutagenic call,[8],inactive; negative
same,mutagenic call,[9],inactive; negative
same,mutagenic call,[10],inactive; negative
CC(C)C[C@@H]1NC(=O)CNC1=O,mutagenic call,[12],inactive; negative
same,mutagenic call,"Test System: AMES SALMONELLA TYPHIMURIUM, Strain/Indicator: TA98, Metabolic Activation: RAT, LIVER, S-9, AROCLOR 1254, Method: STANDARD PLATE",inactive; negative
same,mutagenic call,[11],inactive; negative
same,mutagenic call,"Test System: AMES SALMONELLA TYPHIMURIUM, Strain/Indicator: TA100, Metabolic Activation: RAT, LIVER, S-9, AROCLOR 1254, Method: STANDARD PLATE",inactive; negative
same,mutagenic call,"Test System: AMES SALMONELLA TYPHIMURIUM, Strain/Indicator: TA1535, Metabolic Activation: NONE, Method: STANDARD PLATE",inactive; negative
same,mutagenic call,"Test System: AMES SALMONELLA TYPHIMURIUM, Strain/Indicator: TA1535, Metabolic Activation: RAT, LIVER, S-9, AROCLOR 1254, Method: STANDARD PLATE",inactive; negative
same,mutagenic call,"Test System: AMES SALMONELLA TYPHIMURIUM, Strain/Indicator: TA1537, Metabolic Activation: NONE, Method: STANDARD PLATE",inactive; negative
same,mutagenic call,"Test System: AMES SALMONELLA TYPHIMURIUM, Strain/Indicator: TA1537, Metabolic Activation: RAT, LIVER, S-9, AROCLOR 1254, Method: STANDARD PLATE",inactive; negative
N[C@@H](Cc1c[nH]c2ccc(O)cc12)C(=O)O,mutagenic call,[7],inactive; negative
c1ccc2c(c1)-c1cccc3cccc-2c13,mutagenic call,"Test System: AMES SALMONELLA TYPHIMURIUM, Strain/Indicator: TA97, Metabolic Activation: NONE, Method: STANDARD PLATE",inactive; negative
same,mutagenic call,"Test System: AMES SALMONELLA TYPHIMURIUM, Strain/Indicator: TA97, Metabolic Activation: RAT, LIVER, S-9, AROCLOR 1254, Method: TAPED-PLATE",active; positive
same,mutagenic call,"Test System: AMES SALMONELLA TYPHIMURIUM, Strain/Indicator: TA97, Metabolic Activation: RAT, LIVER, S-9, PCB, Method: STANDARD PLATE",active; positive
same,mutagenic call,[12],inactive; negative
same,mutagenic call,"Test System: AMES SALMONELLA TYPHIMURIUM, Strain/Indicator: TA98, Metabolic Activation: RAT, LIVER, S-9, AROCLOR 1254 (4%), Method: STANDARD PLATE",inactive; negative
same,mutagenic call,"Test System: AMES SALMONELLA TYPHIMURIUM, Strain/Indicator: TA98, Metabolic Activation: RAT, LIVER, S-9, AROCLOR 1254, Method: FLUCTUATION",active; positive
same,mutagenic call,"Test System: AMES SALMONELLA TYPHIMURIUM, Strain/Indicator: TA98, Metabolic Activation: RAT, LIVER, S-9, AROCLOR 1254, Method: TAPED-PLATE",active; positive
same,mutagenic call,"Test System: AMES SALMONELLA TYPHIMURIUM, Strain/Indicator: TA98, Metabolic Activation: RAT, LIVER, S-9, PCB, Method: STANDARD PLATE",active; positive
same,mutagenic call,[11],inactive; negative
same,mutagenic call,"Test System: AMES SALMONELLA TYPHIMURIUM, Strain/Indicator: TA100, Metabolic Activation: RAT, LIVER, S-9, AROCLOR 1254, Method: FLUCTUATION",active; positive
same,mutagenic call,"Test System: AMES SALMONELLA TYPHIMURIUM, Strain/Indicator: TA100, Metabolic Activation: RAT, LIVER, S-9, AROCLOR 1254, Method: TAPED-PLATE",active; positive
same,mutagenic call,"Test System: AMES SALMONELLA TYPHIMURIUM, Strain/Indicator: TA100, Metabolic Activation: RAT, LIVER, S-9, PCB, Method: STANDARD PLATE",active; positive
same,mutagenic call,"Test System: AMES SALMONELLA TYPHIMURIUM, Strain/Indicator: TA102, Metabolic Activation: RAT, LIVER, S-9, AROCLOR 1254, Method: TAPED-PLATE",inactive; negative
same,mutagenic call,"Test System: AMES SALMONELLA TYPHIMURIUM, Strain/Indicator: TA1535, Metabolic Activation: RAT, LIVER, S-9, AROCLOR 1254, Method: TAPED-PLATE",inactive; negative
same,mutagenic call,"Test System: AMES SALMONELLA TYPHIMURIUM, Strain/Indicator: TA1537, Metabolic Activation: RAT, LIVER, S-9, AROCLOR 1254, Method: TAPED-PLATE",active; positive
same,mutagenic call,"Test System: UDS RAT HEPATOCYTES, Strain/Indicator: THY INCORP, Metabolic Activation: NONE, Method: IN VIVO-IN VITRO",inactive; negative
CCN(CC)CCCNC(=O)N/N=C/c1ccc([N+](=O)[O-])o1,mutagenic call,"Test System: E. COLI, Strain/Indicator: WP2 UVRA, Metabolic Activation: NONE, Method: SPOT",active; positive
CCCCCCN=[N+]=[N-],mutagenic call,"Test System: Ames Salmonella typhimurium, Strain/Indicator: TA100, Metabolic Activation: None, Method: Preincubation",inactive; negative
same,mutagenic call,"Test System: Ames Salmonella typhimurium, Strain/Indicator: TA100, Metabolic Activation: Rat, Liver, S-9, Aroclor 1254, Method: Preincubation",active; positive
